From ChEMBL document CHEMBL2440042, “Anti-proliferative activity of hydnocarpin, a natural lignan, is associated with the suppression of Wnt/β-catenin signaling pathway in colon cancer cells” (Bioorg Med Chem Lett, 2013)
Activity calls are given as the source filed them. No cut-off for these calls is given here.

What was measured:
SW480 [1] = experiment: Inhibition of Wnt/beta-catenin signaling pathway in human SW480 cells assessed as CK1-alpha protein expression at 5 uM after 12 hrs by Western blotting analysis relative to vehicle-treated control
SW480 [2] = experiment: Inhibition of Wnt/beta-catenin signaling pathway in human SW480 cells assessed as beta-catenin protein expression at 10 uM after 24 hrs by Western blotting analysis relative to vehicle-treated control
SW480 [3] = experiment: Inhibition of Wnt/beta-catenin signaling pathway in human SW480 cells assessed as phosphorylated (S45) beta-catenin protein expression at 10 uM after 24 hrs by Western blotting analysis relative to vehicle-treated control
SW480 [4] = experiment: Inhibition of Wnt/beta-catenin signaling pathway in human SW480 cells assessed as Axin1 protein expression at 10 uM after 24 hrs by Western blotting analysis relative to vehicle-treated control
SW480 [5] = experiment: Inhibition of Wnt/beta-catenin signaling pathway in human SW480 cells assessed as beta-catenin protein expression at 10 uM after 24 hrs by Immunoblotting analysis relative to vehicle-treated control
SW480 [6] = experiment: Inhibition of Wnt/beta-catenin signaling pathway in human SW480 cells assessed as GSK3-beta protein expression at 20 uM after 24 hrs by Western blotting analysis relative to vehicle-treated control
SW480 [7] = experiment: Inhibition of Wnt/beta-catenin signaling pathway in human SW480 cells assessed as dvl1 protein expression at 10 uM after 12 hrs by Western blotting analysis relative to vehicle-treated control
SW480 [8] = experiment: Inhibition of Wnt/beta-catenin signaling pathway in human SW480 cells assessed as CK1-alpha protein expression at 10 uM after 24 hrs by Western blotting analysis relative to vehicle-treated control
SW480 [9] = experiment: Inhibition of Wnt/beta-catenin signaling pathway in human SW480 cells assessed as beta-catenin protein expression at 5 uM after 12 hrs by Western blotting analysis relative to vehicle-treated control
SW480 [10] = experiment: Inhibition of Wnt/beta-catenin signaling pathway in human SW480 cells assessed as dvl3 protein expression at 10 uM after 12 hrs by Western blotting analysis relative to vehicle-treated control
SW480 [11] = experiment: Inhibition of Wnt/beta-catenin signaling pathway in human SW480 cells assessed as Axin1 protein expression at 10 uM after 12 hrs by Western blotting analysis relative to vehicle-treated control
SW480 [12] = experiment: Inhibition of Wnt/beta-catenin signaling pathway in human SW480 cells after 24 hrs by TOPflash luciferase reporter gene assay relative to vehicle-treated control; assay type: cell-based
SW480 [13] = experiment: Inhibition of Wnt/beta-catenin signaling pathway in human SW480 cells assessed as Axin2 protein expression at 5 uM after 24 hrs by Immunoblotting analysis relative to vehicle-treated control
SW480 [14] = experiment: Inhibition of Wnt/beta-catenin signaling pathway in human SW480 cells assessed as CK1-alpha protein expression at 10 uM after 12 hrs by Western blotting analysis relative to vehicle-treated control
HEK293 = experiment: Inhibition of Wnt/beta-catenin signaling pathway in human HEK293 cells at 20 uM after 24 hrs by dual luciferase reporter gene assay relative to vehicle-treated control; details: HEK293, 24 h
SW480 [15] = experiment: Inhibition of Wnt/beta-catenin signaling pathway in human SW480 cells assessed as dvl2 protein expression at 20 uM after 24 hrs by Western blotting analysis relative to vehicle-treated control
SW480 [16] = experiment: Inhibition of Wnt/beta-catenin signaling pathway in human SW480 cells assessed as beta-catenin protein expression at 10 uM after 12 hrs by Western blotting analysis relative to vehicle-treated control
SW480 [17] = experiment: Inhibition of Wnt/beta-catenin signaling pathway in human SW480 cells assessed as GSK3-beta protein expression at 10 uM after 12 hrs by Western blotting analysis relative to vehicle-treated control
SW480 [18] = experiment: Inhibition of Wnt/beta-catenin signaling pathway in human SW480 cells assessed as GSK3-beta protein expression at 10 uM after 24 hrs by Western blotting analysis relative to vehicle-treated control
SW480 [19] = experiment: Growth inhibition in human SW480 cells at 1 to 20 uM after 72 hrs by SRB assay in presence of axin1 siRNA; assay type: functional, cell-based
SW480 [20] = experiment: Inhibition of Wnt/beta-catenin signaling pathway in human SW480 cells assessed as dvl2 protein expression at 10 uM after 24 hrs by Western blotting analysis relative to vehicle-treated control
SW480 [21] = experiment: Inhibition of Wnt/beta-catenin signaling pathway in human SW480 cells assessed as dvl1 protein expression at 20 uM after 24 hrs by Western blotting analysis relative to vehicle-treated control
SW480 [22] = experiment: Inhibition of Wnt/beta-catenin signaling pathway in human SW480 cells assessed as dvl1 protein expression at 10 uM after 24 hrs by Western blotting analysis relative to vehicle-treated control
SW480 [23] = experiment: Inhibition of Wnt/beta-catenin signaling pathway in human SW480 cells assessed as dvl3 protein expression at 20 uM after 12 hrs by Western blotting analysis relative to vehicle-treated control
SW480 [24] = experiment: Inhibition of Wnt/beta-catenin signaling pathway in human SW480 cells assessed as GSK3-beta protein expression at 5 uM after 12 hrs by Western blotting analysis relative to vehicle-treated control
SW480 [25] = experiment: Inhibition of Wnt/beta-catenin signaling pathway in human SW480 cells assessed as phosphorylated (S45) beta-catenin protein expression at 5 uM after 24 hrs by Western blotting analysis relative to vehicle-treated control
SW480 [26] = experiment: Inhibition of Wnt/beta-catenin signaling pathway in human SW480 cells assessed as beta-catenin protein expression at 5 uM after 24 hrs by Western blotting analysis relative to vehicle-treated control
SW480 [27] = experiment: Inhibition of Wnt/beta-catenin signaling pathway in human SW480 cells assessed as beta-catenin protein expression at 5 uM after 24 hrs by Immunoblotting analysis relative to vehicle-treated control
SW480 [28] = experiment: Inhibition of Wnt/beta-catenin signaling pathway in human SW480 cells assessed as Axin1 protein expression at 20 uM after 12 hrs by Western blotting analysis relative to vehicle-treated control
SW480 [29] = experiment: Inhibition of Wnt/beta-catenin signaling pathway in human SW480 cells assessed as Axin2 protein expression at 10 uM after 24 hrs by Immunoblotting analysis relative to vehicle-treated control
SW480 [30] = experiment: Inhibition of Wnt/beta-catenin signaling pathway in human SW480 cells assessed as dvl1 protein expression at 5 uM after 24 hrs by Western blotting analysis relative to vehicle-treated control
SW480 [31] = experiment: Inhibition of Wnt/beta-catenin signaling pathway in human SW480 cells assessed as Axin2 protein expression at 5 uM after 24 hrs by Western blotting analysis relative to vehicle-treated control
SW480 [32] = experiment: Inhibition of Wnt/beta-catenin signaling pathway in human SW480 cells assessed as Axin1 protein expression at 5 uM after 24 hrs by Western blotting analysis relative to vehicle-treated control
SW480 [33] = experiment: Inhibition of Wnt/beta-catenin signaling pathway in human SW480 cells assessed as dvl2 protein expression at 5 uM after 24 hrs by Western blotting analysis relative to vehicle-treated control

## COc1cc([C@H]2Oc3ccc(-c4cc(=O)c5c(O)cc(O)cc5o4)cc3O[C@@H]2CO)ccc1O (relative stereo)
SW480 [1]
  fold change (FC): 0.9
SW480 [2]
  fold change (FC): 0.8
SW480 [3]
  fold change (FC): 2.1
SW480 [4]
  fold change (FC): 3.5
SW480 [5]
  fold change (FC): 0.7
SW480 [6]
  fold change (FC): 1
SW480 [7]
  fold change (FC): 1
SW480 [8]
  fold change (FC): 1.2
SW480 [9]
  fold change (FC): 0.8
SW480 [10]
  fold change (FC): 1
SW480 [11]
  fold change (FC): 2.2
SW480 [12]
  inhibition: Dose-dependent effect
SW480 [13]
  fold change (FC): 1
SW480 [14]
  fold change (FC): 0.9
HEK293
  inhibition at 20 µM: 61.6%
SW480 [15]
  fold change (FC): 1.2
SW480 [16]
  fold change (FC): 0.7
SW480 [17]
  fold change (FC): 0.8
SW480 [18]
  fold change (FC): 1.2
SW480 [19]
  growth inhibition (GI): inactive
SW480 [20]
  fold change (FC): 1.2
SW480 [21]
  fold change (FC): 1.2
SW480 [22]
  fold change (FC): 1
SW480 [23]
  fold change (FC): 1.1
SW480 [24]
  fold change (FC): 0.8
SW480 [25]
  fold change (FC): 1.4
SW480 [26]
  fold change (FC): 0.8
SW480 [27]
  fold change (FC): 0.8
SW480 [28]
  fold change (FC): 2.7
SW480 [29]
  fold change (FC): 1.2
SW480 [30]
  fold change (FC): 1
SW480 [31]
  fold change (FC): 1.8
SW480 [32]
  fold change (FC): 1.7
SW480 [33]
  fold change (FC): 1.2
